The source of these data is patent US8633315B2, “Substituted hydroxyethyl amine compounds as beta-secretase modulators and methods of use” (Amgen Inc., priority 2007, dated 2014).

Read-outs that look alike come from different tables or passages of the source.

One experiment has as its target BACE1 (Homo sapiens, UniProt P56817). The experiment can be described thus: In vitro enzymatic BACE FRET (fluorescence resonance energy transfer) assay. It is filed as biochemical. The procedure, abridged:
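Fluorescence (ex 488 nm, […]) was read after Tris addition raised pH to neutral, ending a one-hour incubation. Reaction started with 50 nM fluorophore/quencher peptide substrate in pH 4.2 acetate (0.05 M) containing 100 uM genapol and 10% DMSO final.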

In experiment [1] the test system is Cells stably expressing Amyloid Precursor Protein (APP). Briefly: In vitro BACE cell-based assay (HEK cell assay): Aβ40 in conditioned medium by sandwich ELISA. Put shortly:
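Secreted Aβ40 was quantified by time-resolved fluorescence sandwich ELISA, capturing with pAb40 for 3 h at 4 °C and detecting with biotinylated 6E10 for 2 h at 4 °C. Media came from APP-expressing cells exposed 24 h to compounds (10-point series from 100 or 10 μM, 0.1% DMSO); IC50 derived from percent of control.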

Setting [2] is: Aβ40 in conditioned medium after 24 h incubation.
Setting [3] is: Homo sapiens, HEK293, 24 h, Aβ40 in conditioned medium after 24 h incubation.

BACE1, sequence (P56817 46-501, species assumed): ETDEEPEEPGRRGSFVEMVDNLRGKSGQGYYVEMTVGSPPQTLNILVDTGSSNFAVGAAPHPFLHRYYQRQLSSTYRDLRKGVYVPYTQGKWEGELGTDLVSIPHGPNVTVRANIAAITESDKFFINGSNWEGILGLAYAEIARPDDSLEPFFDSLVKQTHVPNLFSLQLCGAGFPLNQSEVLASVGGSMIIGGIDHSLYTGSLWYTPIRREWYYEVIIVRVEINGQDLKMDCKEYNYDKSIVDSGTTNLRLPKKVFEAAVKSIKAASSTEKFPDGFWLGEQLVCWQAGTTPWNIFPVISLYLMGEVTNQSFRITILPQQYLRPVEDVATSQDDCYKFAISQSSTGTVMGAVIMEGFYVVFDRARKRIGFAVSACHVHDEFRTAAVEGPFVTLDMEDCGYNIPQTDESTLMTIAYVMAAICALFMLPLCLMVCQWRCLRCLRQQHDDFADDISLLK

For the compound `C=CC[C@H](NC(=O)[C@@H](C)F)[C@H](O)CN[C@H]1CC2(CCC2)Oc2ncc(CC(C)(C)C)cc21.C=CC[C@H](NC(=O)[C@H](C)F)[C@H](O)CN[C@H]1CC2(CCC2)Oc2ncc(CC(C)(C)C)cc21` [Example 148, (2R)-N-((1S)-1-((1R)-2-(((4′S)-6′-(2,2-dimethylpropyl)-3′,4′-dihydrospiro[cyclobutane-1,2′-pyrano[2,3-b]pyridin]-4′-yl)amino)-1-hydroxyethyl)-3-buten-1-yl)-2-fluoropropanamide; (2S)-N-((1S)-1-((1R)-2-(((4′S)-6′-(2,2-dimethylpropyl)-3′,4′-dihydrospiro[cyclobutane-1,2′-pyrano[2,3-b]pyridin]-4′-yl)amino)-1-hydroxyethyl)-3-buten-1-yl)-2-fluoropropanamide], the IC50 on BACE1 stood at 70 nM; in experiment [1] (setting [2]), 121 nM.

With `C=CC[C@H](NC(=O)c1cccnc1)[C@H](O)CN[C@H]1CC2(CCC2)Oc2ncc(CC(C)(C)C)cc21` [Example 96, N-((1S)-1-((1R)-2-(((4′S)-6′-(2,2-dimethylpropyl)-3′,4′-dihydrospiro[cyclobutane-1,2′-pyrano[2,3-b]pyridin]-4′-yl)amino)-1-hydroxyethyl)-3-buten-1-yl)-3-pyridinecarboxamide], the values for the IC50 (on BACE1; in experiment [1] (setting [3])) were 68 nM and 135 nM, respectively.

`C=CC[C@H](NC(=O)c1ccccc1F)[C@H](O)CN[C@H]1CC2(CCC2)Oc2ncc(CC(C)(C)C)cc21` [Example 99, N-((1S)-1-((1R)-2-(((4′S)-6′-(2,2-dimethylpropyl)-3′,4′-dihydrospiro[cyclobutane-1,2′-pyrano[2,3-b]pyridin]-4′-yl)amino)-1-hydroxyethyl)-3-buten-1-yl)-2-fluorobenzamide]: the IC50 at BACE1 was determined as 339 nM; in experiment [1] (setting [3]), 1460 nM.

Turning to `C=CC[C@H](NC(=O)[C@H](OC)C(C)C)[C@H](O)CN[C@H]1CC2(CCC2)Oc2ncc(CC(C)(C)C)cc21` [Example 150, (2R)-N-((1S)-1-((1R)-2-(((4′S)-6′-(2,2-dimethylpropyl)-3′,4′-dihydrospiro[cyclobutane-1,2′-pyrano[2,3-b]pyridin]-4′-yl)amino)-1-hydroxyethyl)-3-buten-1-yl)-3-methyl-2-(methyloxy)butanamide], the IC50 on BACE1 was determined as 2670 nM; in experiment [1] (setting [3]), 5280 nM.

On to `C=CC[C@H](NC(=O)c1ccc(F)cn1)[C@H](O)CN[C@H]1CC2(CCC2)Oc2ncc(CC(C)(C)C)cc21` [Example 62, N-((1S)-1-((1R)-2-(((4′S)-6′-(2,2-dimethylpropyl)-3′,4′-dihydrospiro[cyclobutane-1,2′-pyrano[2,3-b]pyridin]-4′-yl)amino)-1-hydroxyethyl)-3-buten-1-yl)-5-fluoro-2-pyridinecarboxamide], for which the IC50 is 561 nM on BACE1 and 4980 nM in experiment [1] (setting [3]).

`C=CC[C@H](NC(=O)c1cnccc1OC)[C@H](O)CN[C@H]1CC2(CCC2)Oc2ncc(CC(C)(C)C)cc21` [Example 76, N-((1S)-1-((1R)-2-(((4′S)-6′-(2,2-dimethylpropyl)-3′,4′-dihydrospiro[cyclobutane-1,2′-pyrano[2,3-b]pyridin]-4′-yl)amino)-1-hydroxyethyl)-3-buten-1-yl)-4-(methyloxy)-3-pyridinecarboxamide]: the IC50 on BACE1 was determined as 675 nM; in experiment [1] (setting [3]), 802 nM.

Consider `CCC[C@H](NC(C)=O)[C@H](O)CN[C@H]1CC2(CCC2)Oc2ncc(CC(C)(C)C)cc21` [Example 43, N-((1S)-1-((1R)-2-(((4′S)-6′-(2,2-dimethylpropyl)-3′,4′-dihydrospiro[cyclobutane-1,2′-pyrano[2,3-b]pyridin]-4′-yl)amino)-1-hydroxyethyl)butyl)acetamide], for which the IC50 at BACE1 came out at 83 nM; in experiment [1] (setting [3]) it was 167 nM.

Take `C=CC[C@H](NC(=O)COC)[C@H](O)CN[C@H]1CC2(CCC2)Oc2ncc([C@H](F)C(C)(C)C)cc21` [Example 82, N-((1S)-1-((1R)-2-(((4′S)-6′-((1R)-1-fluoro-2,2-dimethylpropyl)-3′,4′-dihydrospiro[cyclobutane-1,2′-pyrano[2,3-b]pyridin]-4′-yl)amino)-1-hydroxyethyl)-3-buten-1-yl)-2-(methyloxy)acetamide]: the IC50 on BACE1 was found to be 69 nM; in experiment [1] (setting [3]) it was 216 nM.

For `C=CCC(NC(C)=O)C(O)CNC1CC2(CC(O)C2)Oc2ccc(CC(C)(C)C)cc21` [Example 116, N-((1S)-1-((1R)-2-(((2r,3′R,4S)-6-(2,2-dimethylpropyl)-3′-hydroxy-3,4-dihydrospiro[chromene-2,1′-cyclobutan]-4-yl)amino)-1-hydroxyethyl)-3-buten-1-yl)acetamide], the IC50 (on BACE1; in experiment [1] (setting [2])) was 15 nM in each case.

For `C=CC[C@H](NC(=O)c1cc(F)ccc1F)[C@H](O)CN[C@H]1CC2(CCC2)Oc2ncc(CC(C)(C)C)cc21` [Example 71, N-((1S)-1-((1R)-2-(((4′S)-6′-(2,2-dimethylpropyl)-3′,4′-dihydrospiro[cyclobutane-1,2′-pyrano[2,3-b]pyridin]-4′-yl)amino)-1-hydroxyethyl)-3-buten-1-yl)-2,5-difluorobenzamide], the IC50 is 212 nM on BACE1 and 998 nM in experiment [1] (setting [3]).

As for `C=CC[C@H](NC(=O)c1ccn(C)n1)[C@H](O)CN[C@H]1CC2(CCC2)Oc2ncc(CC(C)(C)C)cc21` [Example 132, N-((1S)-1-((1R)-2-(((4′S)-6′-(2,2-dimethylpropyl)-3′,4′-dihydrospiro[cyclobutane-1,2′-pyrano[2,3-b]pyridin]-4′-yl)amino)-1-hydroxyethyl)-3-buten-1-yl)-1-methyl-1H-pyrazole-3-carboxamide], the values for the IC50 (at BACE1; in experiment [1] (setting [3])) were 302 nM and 418 nM, respectively.

As for `C=CC[C@H](NC(=O)c1csc(F)c1)[C@H](O)CN[C@H]1CC2(CCC2)Oc2ncc(CC(C)(C)C)cc21` [Example 135, N-((1S)-1-((1R)-2-(((4′S)-6′-(2,2-dimethylpropyl)-3′,4′-dihydrospiro[cyclobutane-1,2′-pyrano[2,3-b]pyridin]-4′-yl)amino)-1-hydroxyethyl)-3-buten-1-yl)-5-fluoro-3-thiophenecarboxamide], the IC50 on BACE1 came to 137 nM; in experiment [1] (setting [3]) it was 1300 nM.

`C=CC[C@H](NC(=O)COC)[C@H](O)CN[C@H]1CC2(CCC2)Oc2c1cc(CC(C)(C)C)nc2N(C)C` [Example 48, N-((1S)-1-((1R)-2-(((4′S)-8′-(dimethylamino)-6′-(2,2-dimethylpropyl)-3′,4′-dihydrospiro[cyclobutane-1,2′-pyrano[2,3-c]pyridin]-4′-yl)amino)-1-hydroxyethyl)-3-buten-1-yl)-2-(methyloxy)acetamide]: the IC50 at BACE1 was found to be 365 nM; in experiment [1] (setting [3]) it was 2820 nM.

In the case of `C=CCC(NC(=O)C1CC1OCC)C(O)CNC1CC2(CCC2)Oc2ncc(CC(C)(C)C)cc21` [Example 153, (1R,2R)-N-((1S)-1-((1R)-2-(((4′S)-6′-(2,2-dimethylpropyl)-3′,4′-dihydrospiro[cyclobutane-1,2′-pyrano[2,3-b]pyridin]-4′-yl)amino)-1-hydroxyethyl)-3-buten-1-yl)-2-(ethyloxy)cyclopropanecarboxamide; (1S,2S)-N-((1S)-1-((1R)-2-(((4′S)-6′-(2,2-dimethylpropyl)-3′,4′-dihydrospiro[cyclobutane-1,2′-pyrano[2,3-b]pyridin]-4′-yl)amino)-1-hydroxyethyl)-3-buten-1-yl)-2-(ethyloxy)cyclopropanecarboxamide], the IC50 on BACE1 turned out to be 104 nM; in experiment [1] (setting [3]), 129 nM.

Regarding `C=CC[C@H](NC(=O)C1CC(=O)N(C2CCC2)C1)[C@H](O)CN[C@H]1CC2(CCC2)Oc2ncc(CC(C)C)cc21` (stereo partly drawn) [Example 40, 1-cyclobutyl-N-((1S)-1-((1R)-1-hydroxy-2-(((4′S)-6′-(2-methylpropyl)-3′,4′-dihydrospiro[cyclobutane-1,2′-pyrano[2,3-b]pyridin]-4′-yl)amino)ethyl)-3-buten-1-yl)-5-oxo-3-pyrrolidinecarboxamide], the IC50 (at BACE1; in experiment [1] (setting [3])) was 6 nM each time.

As for `C=CC[C@H](NC(C)=O)[C@H](O)CN[C@H]1CC2(CCC2)Oc2c1cc(CC(C)(C)C)nc2N1CCCC1` [Example 46, N-((1S)-1-((1R)-2-(((4′S)-6′-(2,2-dimethylpropyl)-8′-(1-pyrrolidinyl)-3′,4′-dihydrospiro[cyclobutane-1,2′-pyrano[2,3-c]pyridin]-4′-yl)amino)-1-hydroxyethyl)-3-buten-1-yl)acetamide], the IC50 was 373 nM at BACE1 and 183 nM in experiment [1] (setting [3]).

In the case of `C=CC[C@H](NC(=O)C1COC(c2ccccn2)O1)[C@H](O)CNC1CC2(CCC2)Oc2ncc(CC(C)(C)C)cc21` (stereo partly drawn) [compound 242, N-((1S)-1-((1R)-2-((6′-(2,2-dimethylpropyl)-3′,4′-dihydrospiro[cyclobutane-1,2′-pyrano[2,3-b]pyridin]-4′-yl)amino)-1-hydroxyethyl)-3-buten-1-yl)-2-(2-pyridinyl)-1,3-dioxolane-4-carboxamide], the IC50 at BACE1 (read-out: BACE 1 FRET assay) amounted to 3830 nM; in experiment [1] (Homo sapiens, HEK293), 691 nM.

As to `C=CC[C@H](NC(=O)c1cccnc1OC)[C@H](O)CN[C@H]1CC2(CCC2)Oc2ncc(CC(C)(C)C)cc21` [Example 65, N-((1S)-1-((1R)-2-(((4′S)-6′-(2,2-dimethylpropyl)-3′,4′-dihydrospiro[cyclobutane-1,2′-pyrano[2,3-b]pyridin]-4′-yl)amino)-1-hydroxyethyl)-3-buten-1-yl)-2-(methyloxy)-3-pyridinecarboxamide], the values for the IC50 (on BACE1; in experiment [1] (setting [3])) were 475 nM and 258 nM, respectively.
